Source: the METLIN SMRT retention time set (Domingo-Almenara et al. 2019)

Test: gradient 5% acetonitrile 3 min, to 50% in 2 min, to 85% in 15 min, held 3 min, 100 µL/min
Details: column: Zorbax Extend-C18 2.1 x 50 mm; eluents: water / acetonitrile, 0.1% formic acid
Outline: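 Data were gathered over 3 months by HPLC coupled to a quadrupole time-of-flight mass spectrometer, operated in positive and negative ionization mode. Mixtures of ~100 pure standards ran on a Zorbax Extend-C18 column (2.1 × 50 mm, 1.8 μm) at 100 μL/min, with water and acetonitrile each containing 0.1% formic acid and dead and dwell volumes of 40 μL and 900 μL. Retention time was read from adduct peaks picked by computer and checked manually.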

Compound	RP-LC retention time
COc1cccc(CNC(=O)Nc2cccc(-c3ccc(N4CCOCC4)nn3)c2)c1	670 s
CN1C(=O)c2cc(C(=O)NCc3cccc(F)c3)nn2CC1(C)C(=O)NC1CCCC1 (centres undefined)	750 s
COc1ccc(-c2nc3cnccn3c2NCCC(=O)NC(C)C)cc1	609 s
CN(C)CCNC(=O)Cn1cnc2onc(-c3ccc(F)cc3)c2c1=O	620 s
CC(Cc1cccs1)NC(=O)c1cnccn1 (centres undefined)	706 s
CCCCN1C(=O)C(C)(C(=O)Nc2cccc(F)c2)Oc2cccnc21 (centres undefined)	924 s
Cn1cc(CCNC(=O)c2ccccc2C(F)(F)F)c2cccnc21	700 s
COc1ccc2c(c1O)[C@]13CCN(C)[C@H](C2)[C@@H]1CCC(=O)C3	622 s
Cc1cncc(CN2CCC(=C3c4ccc(Cl)cc4CCc4cccnc43)CC2)c1	659 s
CC(C)CNC(=O)c1ccc(-n2cc(CNC(=O)C3CC3)cn2)cc1	682 s
Cn1ccc2cc(S(=O)(=O)N3CCCC(C(=O)NCCCN4CCc5ccccc5C4)C3)ccc21 (centres undefined)	685 s
CC1CCC(NC(=O)CN2C(=O)CCCc3cc(S(=O)(=O)N4CCC(C)CC4)ccc32)CC1 (centres undefined)	1040 s
CCCS(=O)(=O)N1CCC2(CC1)CN(c1ccccc1)C2=O	812 s
COc1ccc(Cl)cc1NC(=O)NC1CCN(c2nc3ccccc3n(C)c2=O)CC1	1010 s
Cc1ccc(C(=O)N2CCCn3cc(-c4ccccc4)nc32)cn1	605 s
COc1ccc(-c2noc(C3CCCN3C(=O)c3sccc3C)n2)cc1 (centres undefined)	984 s
CN(C)S(=O)(=O)c1ccc(-c2nnc(C(=O)NCc3ccccn3)o2)cc1	649 s
CCn1cc(-c2nc(C)c(C(=O)Nc3cccc(C(=O)OC)c3)s2)c2cccnc21	993 s
CCCC(=O)N1CCc2c([nH]c3ccccc23)C1c1ccc(Cl)cc1 (centres undefined)	578 s
Cc1nn(C)cc1CN(C)C(=O)COc1ccc(NC(=O)C2CC2)cn1	604 s
C=Cc1ccc(Cn2cc(S(=O)(=O)N3CCOCC3)ccc2=O)cc1	825 s
CCCCNC(=O)C1CCCN(C(=O)c2[nH]c(C)c(C(=O)OC)c2C)C1 (centres undefined)	692 s

Compound	RP-LC retention time
CCOC(=O)c1cccc(NC(=O)CSc2ccc(N3CCCC(C(=O)NC4CC4)C3)nn2)c1 (centres undefined)	680 s
CN1C(=O)c2cc(C(=O)Nc3ccccc3Cl)nn2CC1(C)C(=O)NC1CCCCC1 (centres undefined)	887 s
COc1cccc(CNC(=O)N2CCN(C3=CC4=NC(C)CN4C=N3)CC2)c1 (centres undefined)	649 s
CCc1ccc(S(=O)(=O)Nc2ccc(-c3cn4cccc(C)c4n3)cc2)cc1	667 s
CCN1C(=O)c2cccnc2Sc2cc(NC(=O)COc3cccc(C)c3)ccc21	931 s
O=C1CC(C(F)(F)F)c2c(c(C(=O)O)cn2-c2ccc(F)cc2)N1 (centres undefined)	727 s
CCOc1ccc(CNC(=O)C2CCCN(c3ccc(=O)n(-c4ccc(F)cc4)n3)C2)cc1 (centres undefined)	869 s
CN1C(=O)[C@H]2CN(Cc3cn[nH]c3-c3cccc(Br)c3)C[C@H]2C1=O	612 s
CCOC(=O)CC(=O)CSc1nc2ccsc2c(=O)n1Cc1ccc(F)cc1	903 s
O=C1c2ccccc2-c2c1c1ccccc1c(=O)n2Cc1ccccc1	1130 s
CCOC(=O)C1CCCN(C(=O)CCC2CCCN(c3cc(NC4CC4)ncn3)C2)C1 (centres undefined)	666 s
O=C(Cc1cn2cc(Cl)ccc2n1)Nc1ccccc1	614 s
O=C(Cn1cccc(-c2nc(-c3ccc(Br)cc3)no2)c1=O)N1CCCc2ccccc21	1070 s
COc1ccc(NC(=O)COc2nc(C)nc3ccccc23)c(OC)c1	708 s
CCC(=O)Nc1ccc(-n2cnc(C(=O)NC3CCC(C)CC3)c2)nc1 (centres undefined)	710 s
Cc1nc2ccc(Cl)cn2c(=O)c1NC(=O)c1ccc([N+](=O)[O-])cc1Cl	668 s
CCOc1ccc(-n2nnc(C(=O)OC)c2C(=O)OC)cc1	882 s
Cn1c(C2CCN(S(=O)(=O)c3ccccc3Cl)CC2)cc(=O)n2nccc12	708 s
O=C(NCc1ccc(F)cc1)N1CCCC1c1nc(-c2cccc(F)c2)no1 (centres undefined)	946 s
NC(=O)c1cc(Br)cc(C2CCCCC2)c1O	1220 s
Cc1n[nH]c(C)c1CNC(=O)C1CCN(C(=O)c2ncn3c2COC(c2ccc(F)cc2)C3)CC1 (centres undefined)	627 s
Cc1cc(F)ccc1NC(=O)C1CCN(S(=O)(=O)c2cc(C(=O)N3CCOCC3)cs2)CC1	759 s
